Here are results for two compounds from US11795204B2 (Zealand Pharma A/S, priority 2012, dated 2023).

Broadly, the solubility is the dissolved amount per volume that the medium holds. A low value points to little dissolved substance. Broadly, the EC50 is the midpoint of the concentration-response curve.

Data set [1] in a line: Solubility assessment (turbidity absorbance at 325 nm). Conditions: pH 7.5. The method in brief:
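Peptide stock 2 mg/ml (A280-quantified) in water at pH 2.5, diluted 1:1 into 100 mM acetate pH 4.0 or 100 mM phosphate pH 7.5. Absorbance at 280 and 325 nm read at ambient temperature, single samples (n=1).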

Data set [2] in a line: Chemical stability assessment (RP-HPLC normalized purity). The class given is physicochemical. As to conditions: for Normalized purity pH 4.0 after 14 days: 1 mg/ml in 50 mM acetate buffer pH 4.0, 40° C.; for Normalized purity pH 7.5 after 14 days: 1 mg/ml in 50 mM phosphate buffer pH 7.5, 40° C. The procedure:
Samples were placed in glass vials and incubated at 40° C. The samples were analysed by reverse-phase HPLC on a C18 column with gradient elution using an acetonitrile/trifluoroacetic acid/water eluent system. The area-percentage (area-%) of the main peak after incubation time T=t (relative to time T=0) was detected by UV spectrometry at 220 nm. The purity was first determined as follows: Purity(area-%)=(area of main peak/total area of all peaks)×100. […] Normalized purity values in Table 2 were determined after 14 days of incubation.

Data set [3] can be described thus: Assessment of physical stability (Thioflavin T fibril formation lag-time). The class given is physicochemical. Conditions: 1 mg/ml, 50 mM phosphate pH 7.5, 40° C., 96 hours. The procedure:
A solution containing 1 mg/ml of peptide, 40 μM ThT and 50 mM phosphate buffer, pH 7.5, was loaded in a 96-well black fluorescence plate (clear bottom) in triplicate. Data were collected at fixed intervals of 10 min, each preceded by 300 s of automixing (agitation), over a period of 96 hours at 40° C. The entire experiment was repeated, but without agitation. Physical stability, expressed as lag-time of fibril formation (in hours), was defined as the intersection between two linear regressions representing the initial stable phase and the growth phase.

In data set [4] the target is T1, human Glucagon-R (Homo sapiens, UniProt P47871).
T1 construct: expressed in transfected cells
Kind of data set: Glucagon receptor assay (cAMP induction, AlphaScreen). Type of data set: cell-based. Conditions: HEK293 cells expressing the human Glucagon-R, 15 min at 37° C., read-out: GCG-R EC50 in vitro. The method in brief:
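Stable G418-selected clonal cells expressing the receptor were washed, then exposed to rising test peptide concentrations in IBMX-containing assay buffer for 15 min at 37° C. After lysis (≥10 min, room temperature), lysate was incubated 1 h with AlphaScreen donor/acceptor beads and cAMP content read.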
Background: Bead proximity is the source of the signal in Alpha formats.

T1 sequence (P47871 26-477): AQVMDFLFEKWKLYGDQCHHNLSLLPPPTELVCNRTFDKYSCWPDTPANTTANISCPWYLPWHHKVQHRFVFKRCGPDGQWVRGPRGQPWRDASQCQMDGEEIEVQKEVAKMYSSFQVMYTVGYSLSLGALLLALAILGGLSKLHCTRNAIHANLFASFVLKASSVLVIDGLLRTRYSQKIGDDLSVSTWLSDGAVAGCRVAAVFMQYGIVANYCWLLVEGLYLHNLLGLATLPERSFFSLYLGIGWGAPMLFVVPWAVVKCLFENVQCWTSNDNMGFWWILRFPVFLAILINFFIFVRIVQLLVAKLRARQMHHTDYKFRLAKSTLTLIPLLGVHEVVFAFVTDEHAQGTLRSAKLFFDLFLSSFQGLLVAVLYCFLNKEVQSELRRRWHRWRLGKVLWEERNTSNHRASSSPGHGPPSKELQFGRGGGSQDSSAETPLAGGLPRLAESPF

The compound `CC(C)C[C@H](NC(=O)[C@H](Cc1c[nH]c2ccccc12)NC(=O)[C@H](CCCCN)NC(=O)[C@@H](NC(=O)[C@H](Cc1ccccc1)NC(=O)[C@H](CCC(=O)O)NC(=O)[C@H](CCC(=O)O)NC(=O)[C@H](C)NC(=O)[C@H](CCCNC(=N)N)NC(=O)[C@H](C)NC(=O)C(C)(C)NC(=O)[C@H](CC(=O)O)NC(=O)[C@H](CC(C)C)NC(=O)[C@H](Cc1ccc(O)cc1)NC(=O)[C@H](CCCCN)NC(=O)[C@H](CO)NC(=O)[C@H](Cc1ccc(O)cc1)NC(=O)[C@H](CC(=O)O)NC(=O)[C@H](CO)NC(=O)[C@@H](NC(=O)[C@H](Cc1ccccc1)NC(=O)[C@@H](NC(=O)CNC(=O)[C@H](CCC(N)=O)NC(=O)[C@H](CO)NC(=O)[C@@H](N)Cc1c[nH]cn1)[C@@H](C)O)[C@@H](C)O)C(C)C)C(=O)N[C@@H](CCC(=O)O)C(=O)N[C@@H](CO)C(=O)N[C@H](C(=O)O)[C@@H](C)O` [Compound 21] had a solubility in data set [1] (phosphate buffer) of at least 1000 µg/mL. In data set [2], the “Normalized purity pH 4.0 after 14 days” value came out at 89.8% and the “Normalized purity pH 7.5 after 14 days” value was 93.5%. For the same compound, the “Physical Stability at pH 7.5 (agitated)” value in data set [3] (with agitation) is “FND”. Further, the “Physical Stability at pH 7.5 (non-agitated)” value in data set [3] (without agitation) is given as “FND”.

As to “H-HSQGTFTSDYSKYLDLARAEDFVKWLEST-OH [Compound 17]”, the EC50 in data set [4] was determined as 0.029 nM. Also, the solubility in data set [1] is at least 1000 µg/mL. Moreover, in data set [2], the “Normalized purity pH 4.0 after 14 days” value amounted to 89.9% and the “Normalized purity pH 7.5 after 14 days” value is given as 88.3%.
